These are literature values, as cited in patent US20250339386A1, “VITAMIN K2 FOR USE IN TREATMENT OF CORONARY ARTERY CALCIFICATION” (Region Syddanmark, priority 2022, published 2025).

Data set [1] concerns human monocyte-derived macrophages. The settings on record: cells pretreated; dose response relationship.
For another data set, the system named is CAC progression. The settings on record: asymptomatic older men and women 60-80 years, with recommended calcium and vitamin D.
For data set [2], the system named is aortic valve calcification. The settings on record: high-dose supplementation; male subjects with aortic valve calcification score above 300 arbitrary units.

For `CC(C)=CCC/C(C)=C/CC/C(C)=C/CC/C(C)=C/CC/C(C)=C/CC/C(C)=C/CC/C(C)=C/CC1=C(C)C(=O)c2ccccc2C1=O` [menaquinone-7], the “Cytokine release (TNF-α, IL-1α, IL-1β)” value in data set [1] was “inhibition of cytokine release”.
In the case of `CC1=C(C/C=C(\C)CCC[C@H](C)CCC[C@H](C)CCCC(C)C)C(=O)c2ccccc2C1=O` [vitamin K1, phylloquinone], the “Progression of existing CAC” value in the data set with CAC progression is given as “reduced the progression of existing CAC”.
As for Menaquinone [vitamin K2], the “Aortic valve calcification progression” value in data set [2] is “non-significantly decreased”.
